Measured values taken from patent US7999000B2, “N-(2-amino-phenyl)-acrylamides” (Hoffmann-La Roche Inc., priority 2008, dated 2011).

Columns and labels:
[1] = system: histone deacetylase (HeLa nuclear extract); experiment: HeLa extract HDAC fluorometric assay; assay type: biochemical; details: relative inhibitory potency compared with SNDX-275 at 30 micromolar
Method: HDAC Inhibition by Novel Compounds: HeLa Extract HDAC Fluorometric Assay
Novel compounds were tested for their ability to inhibit histone deacetylase using an in vitro deacetylation assay. The enzyme source for this assay was HeLa nuclear extract. The substrate consisted of a commercial product containing an acetylated lysine side chain (both HeLa extract and substrate are available commercially from BIOMOL Research Laboratories, Inc., Plymouth Meeting, Pa.). After deacetylation of the substrate by incubation with HeLa nuclear extract, subsequent exposure to a developing reagent produces a fluorophore that is directly proportional to the level of deacetylation. Using the substrate concentration at the Km for the HeLa nuclear extract, the deacetylation assay was performed in the presence of novel compounds at 30 micromolar and the percent enzyme inhibition relative to a known reference HDAC inhibitor (SNDX-275) was determined. […] Inhibitory activity for specific representative compounds can be found in Table 3.

[2] = system: p21 promoter-luciferase construct in HeLa cells; experiment: p21 reporter gene induction; assay type: cell-based; details: relative induction potency compared with SNDX-275 at 3 micromolar
Method: p21 Reporter Gene Induction By Novel Compounds
The novel compounds of the present invention were tested for their ability to induce p21 gene expression using a reporter gene assay involving HeLa cells transfected with a p21 promoter-luciferase construct. The p21 promoter contained the Sp1/Sp3 binding site for HDAC but not the upstream p53 binding site. Briefly, the day before transfection, HeLa cells were seeded at 11,000 cells/well in a 96-well culture plate and incubated at 37 degrees Celsius in 5% CO2 overnight. For transfection, the medium was removed and replaced with 100 microliters/well transfection media previously prepared as follows: 5 microliters serum-free DMEM, 0.15 microliters Fugene 6 reagent, 40 ng p21-luc, 10 ng GFP were mixed gently and incubated at room temperature for 30 minutes; then 98 microliters DMEM (with 10% FBS, 1% penicillin and streptomycin) was added to the DNA:Fugene 6 reagent complex and mixed gently. After incubating the cells for 24 hours at 37 degrees Celsius in 5% CO2, fresh media and test compounds were added to the wells and the cells further incubated for 15 hours at 37 degrees Celsius in 5% CO2. Cells were lysed by adding 80 microliters/well of a cell culture lysis reagent (Promega). 50 microliters of each lysate was taken for GFP detection using an excitation wavelength of 486 nm and detection at 527 nm. 100 microliters Luciferase assay reagent (Promega) was then added to every 20 microliters cell lysate for luminometer detection. […] Induction activity for specific representative compounds can be found in Table 3.

[3] = system: klf2 promoter-luciferase construct in A204 cells; experiment: klf2 reporter gene induction (p21 versus klf2 selectivity); assay type: cell-based; details: for p21/klf2 (RP3): relative selectivity at 3 micromolar compared with SNDX-275 (p21/klf2 ratio defined as 1.0); for p21/klf2 (RP10): relative selectivity at 10 micromolar compared with SNDX-275 (p21/klf2 ratio defined as 1.0)
Method: klf2 Reporter Gene Induction By Novel Compounds
The novel compounds of the present invention were tested for their ability to induce klf2 gene expression using a reporter gene assay involving A204 cells transfected with a klf2 promoter-luciferase construct. The klf2 promoter contained the MEF2 binding site for HDAC3/class IIa HDAC complex. Briefly, the day before transfection, A204 cells were seeded at 11,000 cells/well in a 96-well culture plate and incubated at 37 degrees Celsius in 5% CO2 overnight. For transfection, the medium was removed and replaced with 100 microliters/well transfection media previously prepared as follows: 5 microliters serum-free DMEM, 0.15 microliters Fugene 6 reagent, 40 ng klf2-luc, 10 ng GFP were mixed gently and incubated at room temperature for 30 minutes; then 98 microliters DMEM (with 10% FBS, 1% penicillin and streptomycin) was added to the DNA:Fugene 6 reagent complex and mixed gently. After incubating the cells for 24 hours at 37 degrees Celsius in 5% CO2, fresh media and test compounds were added to the wells and the cells further incubated for 15 hours at 37 degrees Celsius in 5% CO2. Finally, 10 ng/ml TNF-a was added and the cells further incubated for 4 hours. Cells were lysed by adding 80 microliters/well of a cell culture lysis reagent (Promega). 50 microliters of each lysate was taken for GFP detection using an excitation wavelength of 486 nm and detection at 527 nm. 100 microliters Luciferase assay reagent (Promega) was then added to every 20 microliters cell lysate for luminometer detection.

HT-29 colon cancer cells = experiment: Antiproliferative activity, growth inhibition assay (MTS/WST); assay type: cell-based; details: Homo sapiens, 72 hour, read-out: GI50 (micromolar) HT-29
Method: Antiproliferative Activity Against Cancer Cell Lines By Novel Compounds
The novel compounds of the present invention were tested for their ability to inhibit growth of various cancer cell lines using in vitro growth inhibition assays described below.
Cells were seeded in 96-well culture plates (200 microliters/well at different seeding concentrations depending on cell type) and incubated overnight at 37 degrees Celsius in 5% CO2. After adding compound dilutions to the cells (DMSO concentration kept below 0.5%), the cells were incubated at 37 degrees Celsius in 5% CO2 for 72 hours. The effects on proliferation were determined by addition of MTS reagent (Promega) according to the manufacturer's instruction, followed by incubation for 2 hours at 37 degrees Celsius in 5% CO2, and finally recording the absorbance at 490 nm using an ELISA plate reader.
Similar to MTS assay except that the developer is the CCK-8 reagent (Dojindo) and the plate reader is set to 450 nm absorbance.
GI50 values against HT-29 colon cancer cells for specific representative compounds can be found in Table 3.

SMILES: CN(C)[C@@H]1CCN(C(C(=O)Nc2ccc(C(F)(F)F)cc2)c2ccc(/C=C/C(=O)Nc3ccccc3N)cc2)C1 (stereo partly drawn) [Example 7-6, (E)-N-(2-Amino-phenyl)-3-{4-[((R)-3-dimethylamino-pyrrolidin-1-yl)-(4-trifluoromethyl-phenylcarbamoyl)-methyl]-phenyl}-acrylamide]
- HD (RP30) [1]: 175%
- p21 (RP3) [2]: 216%
- p21/klf2 (RP3) [3]: 2.3
- p21/klf2 (RP10) [3]: 2.9
- GI50 (HT-29 colon cancer cells): 3 µM

SMILES: CCN(CC)C1CCN(C(C(=O)Nc2ccc(C(F)(F)F)cc2)c2ccc(/C=C/C(=O)Nc3ccccc3N)cc2)C1 (stereo not shown) [Example 7-7, (E)-N-(2-Amino-phenyl)-3-{4-[(3-diethylamino-pyrrolidin-1-yl)-(4-trifluoromethyl-phenylcarbamoyl)-methyl]-phenyl}-acrylamide]
- HD (RP30) [1]: 183%
- p21 (RP3) [2]: 230%
- p21/klf2 (RP3) [3]: 2.1
- p21/klf2 (RP10) [3]: 2.0
- GI50 (HT-29 colon cancer cells): 2.3 µM

SMILES: CCN(CC)C1CCN(C(C(=O)Nc2ccc(C#N)cc2)c2ccc(/C=C/C(=O)Nc3ccccc3N)cc2)C1 (stereo not shown) [Example 7-16, (E)-N-(2-Amino-phenyl)-3-{4-[(4-cyano-phenylcarbamoyl)-(3-diethylamino-pyrrolidin-1-yl)-methyl]-phenyl}-acrylamide]
- HD (RP30) [1]: 159%
- p21 (RP3) [2]: 157%
- p21/klf2 (RP3) [3]: 0.7
- p21/klf2 (RP10) [3]: 0.9
- GI50 (HT-29 colon cancer cells): 0.2 µM

SMILES: CCN(CC)C1CCN(C(C(=O)Nc2ccc(F)cc2)c2ccc(/C=C/C(=O)Nc3ccccc3N)cc2)C1 (stereo not shown) [Example 7-17, (E)-N-(2-Amino-phenyl)-3-{4-[(3-diethylamino-pyrrolidin-1-yl)-(4-fluoro-phenylcarbamoyl)-methyl]-phenyl}-acrylamide]
- HD (RP30) [1]: 164%
- p21 (RP3) [2]: 163%
- p21/klf2 (RP3) [3]: 0.7
- p21/klf2 (RP10) [3]: 1.0
- GI50 (HT-29 colon cancer cells): 0.7 µM

SMILES: CCN(CCO)C1CCN(C(C(=O)Nc2ccc(Br)cc2)c2ccc(/C=C/C(=O)Nc3ccccc3N)cc2)C1 (stereo not shown) [Example 7-29, (E)-N-(2-Amino-phenyl)-3-[4-((4-bromo-phenylcarbamoyl)-{3-[ethyl-(2-hydroxy-ethyl)-amino]-pyrrolidin-1-yl}-methyl)-phenyl]-acrylamide]
- HD (RP30) [1]: 144%
- p21 (RP3) [2]: 293%
- p21/klf2 (RP3) [3]: 1.2
- p21/klf2 (RP10) [3]: 1.4

SMILES: Nc1ccccc1NC(=O)/C=C/c1ccc(C(C(=O)Nc2ccc(Br)cc2)N2CCC(N3CCCCC3)C2)cc1 (stereo not shown) [Example 7-30, (E)-N-(2-Amino-phenyl)-3-{4-[(4-bromo-phenylcarbamoyl)-(3-piperidin-1-yl-pyrrolidin-1-yl)-methyl]-phenyl}-acrylamide]
- HD (RP30) [1]: 111%
- p21 (RP3) [2]: 338%
- p21/klf2 (RP3) [3]: 1.2
- p21/klf2 (RP10) [3]: 0.1
- GI50 (HT-29 colon cancer cells): 0.7 µM

SMILES: CCN(CC)C1CCN(C(C(=O)Nc2ccc(Cl)cc2)c2ccc(/C=C/C(=O)Nc3ccccc3N)cc2)C1 (stereo not shown) [Example 7]
- HD (RP30) [1]: 163%
- p21 (RP3) [2]: 187%
- p21/klf2 (RP3) [3]: 0.8
- p21/klf2 (RP10) [3]: 1.2
- GI50 (HT-29 colon cancer cells): 0.4 µM
